Results published in ChEMBL document CHEMBL6074661, “Structural Modification and Pharmacological Evaluation of (Thiadiazol-2-yl)pyrazines as Novel Piezo1 Agonists for the Intervention of Disuse Osteoporosis” (J Med Chem, 2024).
≈ marks a conversion by molar mass, not a printed value. Calls of active or inactive are those of the source. No cut-off for these calls is given here.

What was measured:
[1] = target: Piezo-type mechanosensitive ion channel component 1 (Mus musculus) (UniProt E2JF22); experiment: Agonist activity at Piezo1 in mouse C3H 10T1/2 cells assessed as influx of calcium ions by measuring change in ratio of calcium fluorescence at 20 uM incubated for 2 hrs by Cal-bryte 520 AM dye based analysis relative to control; assay type: cell-based
BMSC [2] = experiment: Induction of osteogenesis in BMSC cells (unknown origin) assessed as increase in Osx mRNA level at 5 uM incubated for 3 days by RT-qPCR analysis; assay type: functional, cell-based; details: time 3.0 day, tested as the 2H-labelled form
[3] = target: Piezo-type mechanosensitive ion channel component 1 (Rattus norvegicus) (UniProt Q0KL00); experiment: Agonist activity at Piezo1 in rat BMSC cells assessed as increase in p-Erk level at 5 uM incubated for 5 mins by Western blot analysis; assay type: cell-based; details: filed as activator, tested as the 2H-labelled form
Rattus norvegicus [4] = experiment: Inhibition of disuse osteoporosis in hind-limb unloading Sprague-Dawley rat model assessed as increase in trabecular number at 5 uM/kg, ip administered on day 1, 4, 7, 10, 13 and measured on day 14 by micro-CT analysis; assay type: functional, organism-based; details: time 14.0 day, tested as the 2H-labelled form
Rattus norvegicus [5] = experiment: Induction of osteogenesis in hind-limb unloading Sprague-Dawley rat model assessed as increase in ALP fluorescent area at 5 uM/kg, ip administered on day 1, 4, 7, 10, 13 and measured on day 14 by immunofluorescence based analysis; assay type: functional, organism-based; details: time 14.0 day, tested as the 2H-labelled form
Rattus norvegicus [6] = experiment: Inhibition of disuse osteoporosis in hind-limb unloading Sprague-Dawley rat model assessed as increase in bone volume fraction at 5 uM/kg, ip administered on day 1, 4, 7, 10, 13 and measured on day 14 by micro-CT analysis; assay type: functional, organism-based; details: time 14.0 day, tested as the 2H-labelled form
[7] = target: Piezo-type mechanosensitive ion channel component 1 (Mus musculus) (UniProt E2JF22); experiment: Potency index, ratio of Yoda1 EC50 to test compound […] for agonist activity at Piezo1 in mouse C3H 10T1/2 cells assessed as influx of calcium ions incubated for 2 hrs by Cal-bryte 520 AM dye based analysis; assay type: cell-based; details: filed as agonist, tested as the 2H-labelled form
BMSC [8] = experiment: Induction of osteogenesis in BMSC cells (unknown origin) assessed as increase in Runx2 mRNA level incubated for 3 days by RT-qPCR analysis; assay type: functional, cell-based; details: dose 3-5 µM, time 3.0 day, tested as the 2H-labelled form
Rattus norvegicus [9] = experiment: Inhibition of disuse osteoporosis in hind-limb unloading Sprague-Dawley rat model assessed as decrease in trabecular separation at 5 uM/kg, ip administered on day 1, 4, 7, 10, 13 and measured on day 14 by micro-CT analysis; assay type: functional, organism-based; details: time 14.0 day, tested as the 2H-labelled form
[10] = Aqueous solubility of compound at pH 7.4 incubated for 10 mins by HPLC analysis; assay type: physicochemical; details: aqueous medium
[11] = Toxicity in hind-limb unloading Sprague-Dawley rat model assessed as change in kidney function at 5 uM/kg, ip administered on day 1, 4, 7, 10, 13 and measured on day 14; assay type: organism-based; details: in vivo, 336 h, time 14 day
[12] = Metabolic stability in dog liver microsomes assessed as half life at 10 uM measured for 60 mins by LC-MS/MS analysis; assay type: ADME, Canis lupus familiaris, Microsome
[13] = Metabolic stability in mouse liver microsomes assessed as intrinsic clearance at 10 uM measured for 60 mins by LC-MS/MS analysis; assay type: ADME, Microsome; details: read-out: CLH
[14] = Metabolic stability in mouse liver microsomes assessed as half life at 10 uM measured for 60 mins by LC-MS/MS analysis; assay type: ADME, Microsome
[15] = target: T1, Piezo-type mechanosensitive ion channel component 1 (Mus musculus, UniProt E2JF22); experiment: Agonist activity at Piezo1 in mouse C3H 10T1/2 cells assessed as influx of calcium ions incubated for 2 hrs by Cal-bryte 520 AM dye based analysis; assay type: cell-based
Target sequence in this assay (E2JF22 whole entry): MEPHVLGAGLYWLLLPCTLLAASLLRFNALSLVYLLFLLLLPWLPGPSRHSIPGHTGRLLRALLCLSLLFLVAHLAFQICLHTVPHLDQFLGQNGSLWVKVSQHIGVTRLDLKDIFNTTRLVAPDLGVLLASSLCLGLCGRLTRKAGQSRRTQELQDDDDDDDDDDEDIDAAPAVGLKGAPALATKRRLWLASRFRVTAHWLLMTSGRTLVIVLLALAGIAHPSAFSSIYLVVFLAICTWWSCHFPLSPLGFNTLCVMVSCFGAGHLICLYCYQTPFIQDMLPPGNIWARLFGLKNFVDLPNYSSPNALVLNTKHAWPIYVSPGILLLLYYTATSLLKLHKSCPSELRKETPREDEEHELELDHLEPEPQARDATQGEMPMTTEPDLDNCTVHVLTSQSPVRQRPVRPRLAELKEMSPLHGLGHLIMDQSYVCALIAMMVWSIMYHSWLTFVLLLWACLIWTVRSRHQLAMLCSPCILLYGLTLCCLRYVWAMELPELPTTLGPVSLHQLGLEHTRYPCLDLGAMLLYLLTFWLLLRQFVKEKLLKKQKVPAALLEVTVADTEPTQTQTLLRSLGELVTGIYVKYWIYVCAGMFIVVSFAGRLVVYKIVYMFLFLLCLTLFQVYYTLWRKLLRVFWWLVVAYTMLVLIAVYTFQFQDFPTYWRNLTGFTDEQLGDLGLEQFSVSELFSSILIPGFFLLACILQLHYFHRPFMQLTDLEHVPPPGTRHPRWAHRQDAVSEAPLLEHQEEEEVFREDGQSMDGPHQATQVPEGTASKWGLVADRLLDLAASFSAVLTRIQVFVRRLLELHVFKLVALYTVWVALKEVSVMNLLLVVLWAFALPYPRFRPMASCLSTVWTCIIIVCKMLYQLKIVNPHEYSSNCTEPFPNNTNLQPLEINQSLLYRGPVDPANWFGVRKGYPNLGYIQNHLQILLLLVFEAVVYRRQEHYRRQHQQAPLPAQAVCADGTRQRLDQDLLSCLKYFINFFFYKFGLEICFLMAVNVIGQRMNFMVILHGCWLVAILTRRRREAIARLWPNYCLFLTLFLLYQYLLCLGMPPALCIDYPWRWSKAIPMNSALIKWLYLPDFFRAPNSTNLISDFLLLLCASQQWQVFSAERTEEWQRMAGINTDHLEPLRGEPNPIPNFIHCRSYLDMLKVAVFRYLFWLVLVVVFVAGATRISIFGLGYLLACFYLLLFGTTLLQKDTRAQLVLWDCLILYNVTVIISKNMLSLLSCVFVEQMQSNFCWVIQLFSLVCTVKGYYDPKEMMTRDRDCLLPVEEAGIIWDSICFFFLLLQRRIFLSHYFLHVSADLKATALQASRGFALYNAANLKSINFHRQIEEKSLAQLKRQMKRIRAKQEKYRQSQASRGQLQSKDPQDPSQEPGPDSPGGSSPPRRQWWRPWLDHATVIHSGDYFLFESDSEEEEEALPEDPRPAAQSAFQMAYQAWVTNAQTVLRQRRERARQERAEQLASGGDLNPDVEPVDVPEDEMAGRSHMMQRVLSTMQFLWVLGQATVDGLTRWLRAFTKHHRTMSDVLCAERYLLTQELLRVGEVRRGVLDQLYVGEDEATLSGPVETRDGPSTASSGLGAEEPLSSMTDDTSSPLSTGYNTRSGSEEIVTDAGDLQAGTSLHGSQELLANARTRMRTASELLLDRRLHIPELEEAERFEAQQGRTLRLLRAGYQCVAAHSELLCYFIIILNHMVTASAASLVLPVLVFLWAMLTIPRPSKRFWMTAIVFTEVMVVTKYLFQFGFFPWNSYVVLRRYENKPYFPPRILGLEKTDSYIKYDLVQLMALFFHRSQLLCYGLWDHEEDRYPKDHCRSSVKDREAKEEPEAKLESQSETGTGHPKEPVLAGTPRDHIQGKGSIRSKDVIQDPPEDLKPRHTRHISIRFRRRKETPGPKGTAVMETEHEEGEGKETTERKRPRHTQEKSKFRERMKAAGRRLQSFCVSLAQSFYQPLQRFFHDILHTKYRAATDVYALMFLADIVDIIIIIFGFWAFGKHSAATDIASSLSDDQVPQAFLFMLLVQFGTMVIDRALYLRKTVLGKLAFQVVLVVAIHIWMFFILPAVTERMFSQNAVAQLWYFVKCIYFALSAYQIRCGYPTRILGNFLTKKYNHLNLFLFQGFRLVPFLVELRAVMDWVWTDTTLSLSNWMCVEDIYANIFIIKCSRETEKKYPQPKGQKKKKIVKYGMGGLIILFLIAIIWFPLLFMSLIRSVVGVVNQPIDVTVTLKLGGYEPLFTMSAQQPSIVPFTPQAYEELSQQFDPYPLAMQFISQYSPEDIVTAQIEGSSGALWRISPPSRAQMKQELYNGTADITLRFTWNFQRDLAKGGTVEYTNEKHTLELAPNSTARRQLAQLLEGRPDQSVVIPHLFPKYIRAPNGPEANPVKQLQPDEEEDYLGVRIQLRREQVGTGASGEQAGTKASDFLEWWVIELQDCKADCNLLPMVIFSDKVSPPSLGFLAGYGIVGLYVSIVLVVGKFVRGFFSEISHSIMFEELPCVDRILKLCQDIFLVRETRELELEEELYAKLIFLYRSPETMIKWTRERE

[16] = Metabolic stability in human liver microsomes assessed as half life at 10 uM measured for 60 mins by LC-MS/MS analysis; assay type: ADME, Microsome
[17] = Toxicity in hind-limb unloading Sprague-Dawley rat model assessed as change in liver function at 5 uM/kg, ip administered on day 1, 4, 7, 10, 13 and measured on day 14; assay type: organism-based; details: in vivo, 336 h, time 14 day
[18] = Metabolic stability in dog liver microsomes assessed as intrinsic clearance at 10 uM measured for 60 mins by LC-MS/MS analysis; assay type: ADME, Canis lupus familiaris, Microsome; details: read-out: CLH
[19] = Metabolic stability in human liver microsomes assessed as intrinsic clearance at 10 uM measured for 60 mins by LC-MS/MS analysis; assay type: ADME, Microsome; details: read-out: CLH
[20] = Apparent permeability in MDCK cells; assay type: ADME, cell-based, Canis lupus familiaris; details: dog
[21] = target: T1, Piezo-type mechanosensitive ion channel component 1; experiment: Agonist activity at mouse Piezo1 transfected in HEK293T cells expressing PZ1 mutant by fluorescence based assay; assay type: cell-based
Target sequence in this assay (E2JF22 whole entry, looked up): as the sequence (E2JF22 whole entry) above

[22] = target: T2, Piezo-type mechanosensitive ion channel component 1 (Homo sapiens, UniProt Q92508); experiment: Potency index, ratio of Yoda1 EC50 to test compound EC50 for agonist activity at Piezo1 (unknown origin); details: filed as agonist
[23] = target: T2, Piezo-type mechanosensitive ion channel component 1; experiment: Agonist activity at human Piezo1 transfected in HEK293T cells by FLIPR assay; assay type: cell-based

Sequence of Piezo-type mechanosensitive ion channel component 1 (Mus musculus) (E2JF22 whole entry): as above
T2 sequence (Q92508 whole entry): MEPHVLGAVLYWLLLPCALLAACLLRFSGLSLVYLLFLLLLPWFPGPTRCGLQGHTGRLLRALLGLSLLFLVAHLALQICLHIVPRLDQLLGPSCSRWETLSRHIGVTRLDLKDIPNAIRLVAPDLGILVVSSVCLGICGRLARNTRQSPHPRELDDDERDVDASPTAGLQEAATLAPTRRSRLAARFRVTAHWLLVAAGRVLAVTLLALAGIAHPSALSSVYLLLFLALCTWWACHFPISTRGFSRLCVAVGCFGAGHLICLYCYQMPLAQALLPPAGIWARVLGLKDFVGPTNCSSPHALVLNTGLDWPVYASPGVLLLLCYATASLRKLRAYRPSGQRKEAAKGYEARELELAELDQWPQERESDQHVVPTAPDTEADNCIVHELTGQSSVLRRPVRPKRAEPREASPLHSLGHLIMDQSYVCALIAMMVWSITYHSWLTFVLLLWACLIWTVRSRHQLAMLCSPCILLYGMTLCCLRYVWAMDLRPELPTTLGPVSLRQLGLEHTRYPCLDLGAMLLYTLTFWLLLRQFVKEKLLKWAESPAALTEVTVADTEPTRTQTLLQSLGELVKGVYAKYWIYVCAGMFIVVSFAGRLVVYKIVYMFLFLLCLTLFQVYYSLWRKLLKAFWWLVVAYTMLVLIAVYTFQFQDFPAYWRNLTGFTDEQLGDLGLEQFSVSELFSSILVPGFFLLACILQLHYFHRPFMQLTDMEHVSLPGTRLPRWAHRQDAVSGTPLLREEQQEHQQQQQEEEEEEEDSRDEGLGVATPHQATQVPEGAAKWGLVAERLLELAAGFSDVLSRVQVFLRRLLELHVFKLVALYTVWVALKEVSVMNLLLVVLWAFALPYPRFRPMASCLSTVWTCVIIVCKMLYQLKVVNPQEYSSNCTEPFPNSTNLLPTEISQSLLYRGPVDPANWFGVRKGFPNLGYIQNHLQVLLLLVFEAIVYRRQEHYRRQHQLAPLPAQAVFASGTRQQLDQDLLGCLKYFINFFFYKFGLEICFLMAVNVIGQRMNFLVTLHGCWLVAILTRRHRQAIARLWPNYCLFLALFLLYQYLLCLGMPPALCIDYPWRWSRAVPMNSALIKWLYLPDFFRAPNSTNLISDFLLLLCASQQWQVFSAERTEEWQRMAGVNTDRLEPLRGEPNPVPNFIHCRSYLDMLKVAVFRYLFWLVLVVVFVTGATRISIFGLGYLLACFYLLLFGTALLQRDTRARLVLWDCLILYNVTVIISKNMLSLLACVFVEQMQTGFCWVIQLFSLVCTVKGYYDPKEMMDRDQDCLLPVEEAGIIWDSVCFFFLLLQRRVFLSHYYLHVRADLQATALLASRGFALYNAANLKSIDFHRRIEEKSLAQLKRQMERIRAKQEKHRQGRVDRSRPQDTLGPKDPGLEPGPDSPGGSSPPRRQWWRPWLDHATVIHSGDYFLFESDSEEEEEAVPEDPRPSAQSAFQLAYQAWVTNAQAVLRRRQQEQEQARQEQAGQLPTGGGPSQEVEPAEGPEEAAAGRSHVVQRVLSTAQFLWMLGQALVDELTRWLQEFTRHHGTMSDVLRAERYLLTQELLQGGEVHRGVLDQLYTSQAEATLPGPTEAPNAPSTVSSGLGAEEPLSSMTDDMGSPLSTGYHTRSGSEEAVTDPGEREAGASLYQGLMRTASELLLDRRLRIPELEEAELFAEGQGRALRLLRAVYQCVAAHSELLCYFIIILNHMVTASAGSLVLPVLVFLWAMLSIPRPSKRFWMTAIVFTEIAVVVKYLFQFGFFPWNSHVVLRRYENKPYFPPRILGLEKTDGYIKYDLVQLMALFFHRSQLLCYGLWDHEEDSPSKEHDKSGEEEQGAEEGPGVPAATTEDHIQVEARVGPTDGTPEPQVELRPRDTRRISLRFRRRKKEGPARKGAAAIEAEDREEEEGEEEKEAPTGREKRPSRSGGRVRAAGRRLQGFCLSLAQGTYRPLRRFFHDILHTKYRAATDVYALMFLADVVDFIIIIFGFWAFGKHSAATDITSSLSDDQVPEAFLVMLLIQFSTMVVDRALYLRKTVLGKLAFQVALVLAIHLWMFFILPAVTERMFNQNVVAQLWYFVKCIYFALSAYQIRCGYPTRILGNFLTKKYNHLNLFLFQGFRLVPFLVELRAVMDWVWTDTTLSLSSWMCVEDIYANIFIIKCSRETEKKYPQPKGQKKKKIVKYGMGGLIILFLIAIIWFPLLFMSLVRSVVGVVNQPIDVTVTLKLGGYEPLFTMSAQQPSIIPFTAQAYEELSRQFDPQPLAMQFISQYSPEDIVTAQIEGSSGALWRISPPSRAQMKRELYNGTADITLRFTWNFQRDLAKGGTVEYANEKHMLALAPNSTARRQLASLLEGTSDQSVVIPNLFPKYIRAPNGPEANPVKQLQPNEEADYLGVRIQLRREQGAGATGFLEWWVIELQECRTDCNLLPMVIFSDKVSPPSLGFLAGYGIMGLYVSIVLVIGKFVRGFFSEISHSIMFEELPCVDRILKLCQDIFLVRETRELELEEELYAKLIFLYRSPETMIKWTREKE

Row | SMILES | Percent change in calcium fluorescence ratio relative to control ([1]; filed as agonist) [%] | Percent change in calcium fluorescence ratio relative to control [1] [%] | further results
1 | O=C1CC2(CCN(c3cnc(-c4nnc(SCc5c(Cl)cccc5Cl)s4)cn3)CC2)CN1 | 77.3 |  | 
2 | C[C@@H](O)CNc1cnc(-c2nnc(SCc3ccc4c(cnn4C)c3)s2)cn1 | 73.5 |  | 
3 | OCC1CN(c2cnc(-c3nnc(SCc4c(Cl)cccc4Cl)s3)cn2)C1 |  | 11.6 | 
4 | C[C@@H](O)CNc1cnc(-c2nnc(SCc3c(F)cccc3F)s2)cn1 |  | 21 | 
5 | C[C@@H](O)CNc1cnc(-c2nnc(SCc3c(Cl)ccc(F)c3Cl)s2)cn1 | 91.4 |  | 
6 | C[C@@H](O)CNc1cnc(-c2nnc(SCc3c(Cl)cccc3Cl)s2)cn1 | 106 |  | Activity (BMSC [2]): Active; Activity [3]: Active; The Result Indicates That Compound Emulates Mechanical Stimulation To Activate Piezo1; Percent change in calcium fluorescence ratio relative to control ([1]; filed as agonist, tested as the 2H-labelled form): 170%; Activity (Rattus norvegicus [4]): Active; Activity (Rattus norvegicus [5]): Active; Activty Reached Almost That Of The Weight-Bearing; Activity (Rattus norvegicus [6]): Active; Ratio EC50 [7]: 20; Activity (BMSC [8]): Dose-dependent-effect; Activity (Rattus norvegicus [9]): Active
7 | [2H]C([2H])(Sc1nnc(-c2cnc(NC[C@@H](C)O)cn2)s1)c1c(Cl)cccc1Cl |  |  | solubility at 10 min [10]: 57.9 µM (≈ 24.9 µg/mL); Activity [11]: Non-toxic; half-life at 10 µM [12]: 25.5 min; microsomal CLint at 10 µM [13]: 88.4 µL/min/mg; half-life at 10 µM [14]: 15.7 min; EC50 [15]: 44.2 µM; half-life at 10 µM [16]: 16.7 min; Activity [17]: Non-toxic; microsomal CLint at 10 µM [18]: 54.4 µL/min/mg; microsomal CLint at 10 µM [19]: 83.2 µL/min/mg; Papp [20]: 21 ×10⁻⁶ cm/s
8 | C[C@@H](O)CNc1ccc(-c2nnc(SCc3c(Cl)cccc3Cl)s2)nn1 | 71.3 |  | 
9 | O[C@@H]1CN(c2cnc(-c3nnc(SCc4c(Cl)cccc4Cl)s3)cn2)C[C@@H]1O | 74.5 |  | 
10 | C[C@@H](O)CNc1cnc(-c2nnc(SC(c3c(Cl)cccc3Cl)C3CC3)s2)cn1 (stereo partly drawn) | 64.6 |  | 
11 | OC1CCN(c2cnc(-c3nnc(SCc4c(Cl)cccc4Cl)s3)cn2)CC1 |  | 2 | 
12 | C[C@@H](O)CNc1cnc(-c2nnc(SCc3ccc4scnc4c3)s2)cn1 |  | 15.4 | 
13 | O=C1CC2(CCN(c3cnc(-c4nnc(SCc5ccc6scnc6c5)s4)cn3)CC2)CN1 |  | 7.7 | 
14 | CCC(Sc1nnc(-c2cnc(NC[C@@H](C)O)cn2)s1)c1c(Cl)cccc1Cl (stereo partly drawn) | 91.3 |  | 
15 | C[C@@H](O)CNc1cnc(-c2nnc(SCc3c(Cl)ccnc3Cl)s2)cn1 | 69.7 |  | 
16 | Cc1nnc(CNC(=O)Nc2ccc(C3CCCCC3)cc2)o1 |  |  | EC50 [21]: > 150 µM
17 | Clc1cccc(Cl)c1CSc1nnc(-c2cnc(Br)cn2)s1 |  | 8 | 
18 | FC1(F)CN(c2cnc(-c3nnc(SCc4c(Cl)cccc4Cl)s3)cn2)C1 |  | -8 | 
19 | C[C@H](O)CNc1cnc(-c2nnc(SCc3c(Cl)cccc3Cl)s2)cn1 | 76.6 |  | 
20 | Clc1cccc(Cl)c1CSc1nnc(-c2cnc(N3CC4(COC4)C3)cn2)s1 |  | 0.1 | 

Row | SMILES | Percent change in calcium fluorescence ratio relative to control ([1]; filed as agonist) [%] | Percent change in calcium fluorescence ratio relative to control [1] [%] | further results
21 | C[C@@H](O)CNc1cnc(-c2nnc(SCc3ccccc3Cl)s2)cn1 | 61.9 |  | 
22 | O[C@H]1CCN(c2cnc(-c3nnc(SCc4c(Cl)cccc4Cl)s3)cn2)C1 |  | 30.4 | 
23 | Cn1ncc2cc(CSc3nnc(-c4cnc(N5CCC6(CC5)CNC(=O)C6)cn4)s3)ccc21 | 71.6 |  | 
24 | C[C@@H](O)CNc1ncc(-c2nnc(SCc3c(Cl)cccc3Cl)s2)cn1 | 41.7 |  | 
25 | CC1(O)CN(c2cnc(-c3nnc(SCc4c(Cl)cccc4Cl)s3)cn2)C1 |  | 16.1 | 
26 | OC1CN(c2cnc(-c3nnc(SCc4c(Cl)cccc4Cl)s3)cn2)C1 |  | 36 | 
27 | OCCCNc1cnc(-c2nnc(SCc3c(Cl)cccc3Cl)s2)cn1 | 65.2 |  | 
28 | CC(Sc1nnc(-c2cnc(NC[C@@H](C)O)cn2)s1)c1c(Cl)cccc1Cl (stereo partly drawn) | 164 |  | 
29 | C[C@@H](O)CNc1cnc(-c2nnc(SCc3ccc4ncoc4c3)s2)cn1 | 50.4 |  | 
30 | OCCOCCNc1cnc(-c2nnc(SCc3c(Cl)cccc3Cl)s2)cn1 | 56.3 |  | 
31 | CC(C)(O)[C@H](F)CNc1cnc(-c2nnc(SCc3c(Cl)cccc3Cl)s2)cn1 | 45.4 |  | 
32 | C[C@@H](O)CNc1cncc(-c2nnc(SCc3c(Cl)cccc3Cl)s2)n1 | 49.7 |  | 
33 | C[C@@H](O)CNc1cnc(-c2nnc(SCc3ccc4nnn(C)c4c3)s2)cn1 |  | 35.4 | 
34 | O=C(O)c1ccc(-c2nnc(SCc3c(Cl)cccc3Cl)s2)cc1 |  |  | Ratio EC50 [22]: 4
35 | NC1=NC(=O)[C@H](CC(=O)Nc2ccc(SC(F)F)cc2)S1 |  |  | EC50 [21]: 12.9 µM
36 | FC(F)(F)c1cccc(Cl)c1CSc1nnc(-c2cnccn2)o1 |  |  | Ratio EC50 [22]: 1.25
37 | O=C1CC2(CCN(c3cnc(-c4nnc(SCc5ccc6ncoc6c5)s4)cn3)CC2)CN1 |  | 31.2 | 
38 | Cn1nnc2ccc(CSc3nnc(-c4cnc(N5CCC6(CC5)CNC(=O)C6)cn4)s3)cc21 |  | 38.8 | 
39 | Clc1cccc(Cl)c1CSc1nnc(-c2cnccn2)s1 |  | 30.7 | solubility at 10 min [10]: 3.9 µM (≈ 1.39 µg/mL); half-life at 10 µM [12]: 1.33 min; microsomal CLint at 10 µM [13]: > 277 µL/min/mg; half-life at 10 µM [14]: < 5 min; EC50 [15]: 2.21 µM; half-life at 10 µM [16]: 5.55 min; microsomal CLint at 10 µM [18]: 1040 µL/min/mg; microsomal CLint at 10 µM [19]: 250 µL/min/mg; EC50 [23]: 17.1 µM; Papp [20]: 38 ×10⁻⁶ cm/s
